Assay results as given in patent US4902712A, “Fluoroalkane derivatives” (Imperial Chemical Industries plc, priority 1985, dated 1990).
Blank lines part the entries; values can stand above or below the molecule they belong to.

How the values were obtained:
[1] = tested on: U46619 induced hypertension; experiment: Test (d): U46619 induced hypertension in anaesthetised rats; assay type: in vivo, rat (Alderley Park strain); settings: 1 hour after an oral dose of 0.05 mg/kg
Experimental: (d) Male rats (Alderley Park strain) are anaesthetised with sodium pentobarbital and blood pressure is monitored at the carotid artery. The TXA2 mimetic agent U46619 is administered intravenously at 5 μg/kg via the jugular vein to produce a 20-30 mm Hg (2640-3970 pascal) increase in systolic blood pressure. The procedure is repeated twice to establish reproducibility of the effect. A test compound is then administered either intravenously (via the jugular vein) or orally (via a cannula) directly into the stomach and the animal is challenged with U46619, five minutes after dosing with test compound and then successively every ten minutes until the hypertensive effect of U46619 is no longer blocked.

[2] = tested on: TXA2; experiment: Test (a): rabbit aortal strip model (Piper and Vane); assay type: cell-based; settings: agonist TXA2 or U46619
Experimental: (§1) As stated earlier, the compound of formula I is an antagonist of one or more of the actions of TXA2, for example certain of its actions on blood platelets, the vasculature and/or the lung.
(a) The rabbit aortal strip model devised by Piper and Vane (Nature, 1969, 223, 29-35) using as agonist a freshly prepared sample of TXA2, generated by addition of arachidonic acid (25 μg) to citrated, platelet rich rabbit plasma (250 μl) and allowing the mixture to aggregate fully over 90 seconds before use; alternatively the TXA2 mimetic agent known as U46619 (described by R. L. Jones et alia in "Chemistry, Biochemistry and Pharmacological Activity of Prostanoids" edited by S. M. Roberts and F. Scheinmann, at page 211; Pergamon Press, 1979) may be used as the agonist;

[3] = target: T1, U46619 stimulated platelet aggregation (Homo sapiens, UniProt P21731); experiment: Test (b): blood platelet aggregation test (Born), human citrated platelet-rich plasma; assay type: cell-based; settings: averaged over several concentrations
T1 construct: aggregating human, citrated, platelet-rich plasma; endogenous in cells; host or cells: human platelets in citrated platelet-rich plasma
T1 sequence (P21731 1-343): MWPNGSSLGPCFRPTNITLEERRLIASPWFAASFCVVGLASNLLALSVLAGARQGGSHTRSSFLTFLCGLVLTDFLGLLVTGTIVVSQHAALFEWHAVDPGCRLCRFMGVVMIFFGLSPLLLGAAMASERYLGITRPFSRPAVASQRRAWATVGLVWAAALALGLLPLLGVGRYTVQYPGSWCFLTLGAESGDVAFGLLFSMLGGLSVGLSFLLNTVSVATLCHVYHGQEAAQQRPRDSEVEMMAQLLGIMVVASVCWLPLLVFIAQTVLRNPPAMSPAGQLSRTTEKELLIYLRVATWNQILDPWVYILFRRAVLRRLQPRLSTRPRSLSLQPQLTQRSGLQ
Excerpt: (b) a blood platelet aggregation test based on that described by Born (Nature, 1962, 194, 927-929) and involving:
(i) aggregating human, citrated, platelet-rich plasma by addition of the TXA2 mimetic agent U46619 so that a dose-response curve is generated;
(ii) generating a dose-response curve for U46619 stimulated platelet aggregation in the presence of increasing amounts of test compound (generally in the range 10^-5 M to 10^-10 M); and
(iii) calculating a KB value indicating potency of TXA2 antagonism for the test compound, averaged over several concentrations, from the calculated 50% response value for U46619 aggregation in the presence and absence of test compound; and […]

[4] = tested on: U46619 induced bronchoconstriction; experiment: Test (c): bronchoconstriction test, Konzett-Rossler anaesthetised guinea-pig model; assay type: in vivo; settings: 2 hours after oral dosing at 0.005 mg/kg; ratio of U46619 concentration required to cause 50% bronchoconstriction in presence and absence of test compound
Excerpt: (c) a bronchoconstriction test involving measuring the inhibition by a test compound of the bronchoconstriction induced in the Konzett-Rossler, anaesthetised guinea-pig model (as modified by Collier and James, Brit. J. Pharmacol., 1967, 30, 283-307) by intravenous administration of the TXA2 mimetic agent, U46619 and involving:
(i) obtaining a cumulative dose-response curve to U46619 induced bronchoconstriction by intravenous administration of constant volumes of increasing concentrations of U46619 (0.2-4 ug/kg) in physiological saline solution and expressing bronchoconstriction as the maximum of that theoretically obtainable with no air flow to the test animal;
(ii) generating a cumulative dose-response curve to U46619 induced bronchoconstriction at 30 minute intervals for 3 hours after oral dosing of test compound; and
(iii) calculating a dose-ratio for the test compound (that is the ratio of concentration of U46619 required to cause 50% bronchoconstriction in the presence and absence of test compound) indicating the potency of TXA2 antagonism.

[5] = tested on: TXA2; experiment: TXA2 antagonist properties (general statement, standard tests); settings: in words
Excerpt: as §1

- Kb [3]: 13.2 nM
Compound: O=C(O)CC/C=C\C[C@@H]1CO[C@H](C(F)(F)F)O[C@@H]1c1ccccc1O (relative stereo) [compound of formula I, 4(Z)-6-([2,4,5-cis]-4-o-hydroxyphenyl-2-trifluoromethyl-1,3-dioxan-5-yl)hexenoic acid]
- inhibition of U46619 induced hypertension [1]: > 60%
- pA2 [2]: 7.58±0.05
- dose ratio [4]: > 40
- TXA2 antagonist properties [5]: unexpectedly superior TXA2 antagonist properties

Compound: O=C(O)CCC/C=C\C[C@@H]1CO[C@H](C(F)(F)F)O[C@@H]1c1ccccc1 (relative stereo) [5(Z)-7-([2,4,5-cis]-4-phenyl-2-trifluoromethyl-1,3-dioxan-5-yl)heptenoic acid, reference compound]
- TXA2 antagonist properties [5]: significantly lower TXA2 antagonist properties

Compound: COc1ccccc1[C@H]1O[C@@H](C(F)(F)F)OC[C@H]1C/C=C\CCC(=O)O (relative stereo) [4(Z)-6-([2,4,5-cis]-4-o-methoxyphenyl-2-trifluoromethyl-1,3-dioxan-5-yl)hexenoic acid]
- TXA2 antagonist properties [5]: also possess TXA2 antagonist properties
